Holding throughout (assay type): in vivo
In data set [1] the test system is Scirpus juncoides. Description: Test Example 1: herbicidal activity, application before weed generation in submerged conditions (symbol B). The following applies: application herbicide amount 320 g/ha. The procedure, abridged: (§1)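 0–5 visual score, 3 wk post-application. Submerged pots, alluvial soil, water 4 cm; seeds sown mixed, rice at 2.5 leaves transplanted. Emulsion diluted to predetermined dose, applied to water surface at sowing. 25–30 °C greenhouse.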

The test system of data set [2] is Monochoria vaginalis. Description: Test Example 1: herbicidal activity, application before weed generation in submerged conditions (symbol C). The following applies: application herbicide amount 320 g/ha. In outline:
as §1

Data set [3] concerns Cyperus difformis. Description: Test Example 3: herbicidal effect by foliage application, Wagner pot (symbol E). The following applies: application herbicide amount 320 g/ha, Table 24. In outline:
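Post-emergence, paddy-type test: seedlings 14 d old in shallow-flooded (0.1–0.5 cm) alluvial soil, 25–30 °C greenhouse. Emulsion diluted to target rate, sprayed on leaves. Read-out: visual effect on each species at 3 weeks, per set criteria.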

The test system of data set [4] is Amaranthus retroflexus. Description: Test Example 4: herbicidal effect by soil treatment (symbol N). The following applies: application herbicide amount 320 g/ha. The procedure, abridged: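 Seeds were sown in sterilized diluvial soil, covered with about 1.5 cm of soil, and the soil surface was sprayed with a water-diluted emulsion of the compound at a predetermined rate. Plants grew in a greenhouse at 25° C. to 30° C.; effects were scored visually 3 weeks after application.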

For data set [5], the system named is corn. Description: Test Example 4: effect on crop by soil treatment (symbol c). The following applies: application herbicide amount 320 g/ha. The procedure, abridged:
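Greenhouse culture at 25° C. to 30° C. followed sowing of seed in spots on sterilized diluvial soil with a soil cover close to 1.5 cm thick.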

Data set [6] concerns beet. Description: Test Example 4: effect on crop by soil treatment (symbol f). The following applies: application herbicide amount 320 g/ha. The procedure, abridged: (§2)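 Seeds were sown in spots on sterilized diluvial soil in a plastic box and covered with about 1.5 cm of soil. Plants were then grown in a greenhouse at 25° C. to 30° C.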
Data set [7] has as its system rapeseed. Description: Test Example 4: effect on crop by soil treatment (symbol g). The following applies: application herbicide amount 320 g/ha. The procedure, abridged: as §2
Data set [8] concerns Setaria viridis. Description: Test Example 5: herbicidal effect by foliage application, plastic box (symbol G). The following applies: 320 g/ha, 3 weeks after application. The procedure, abridged:
(§3)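 Visual herbicidal score, taken three weeks post-application, of seedlings sprayed on the foliage with water-diluted emulsion at a predetermined amount; plants were 14 days old, greenhouse-raised at 25° C. to 30° C.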

Data set [9] deals with Lolium multiflorum Lam. Description: Test Example 5: herbicidal effect by foliage application, plastic box (symbol K). The following applies: 320 g/ha, 3 weeks after application. In outline: as §3
For data set [10], the system named is Apera spica-venti. Description: Test Example 5: herbicidal effect by foliage application, plastic box (symbol L). The following applies: 320 g/ha, 3 weeks after application. In outline:
as §3

For data set [11], the system named is Galium spurium. Description: Test Example 5: herbicidal effect by foliage application, plastic box (symbol Q). The following applies: 320 g/ha, 3 weeks after application. In outline: as §3
Data set [12] relates to wheat. Description: Test Example 5: effect on crop by foliage application, plastic box (symbol e). The following applies: 320 g/ha, 3 weeks after application. In outline: (§4)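 Box culture: sterile diluvial soil, seeds spot-sown, ~1.5 cm cover, raised under glass at 25–30° C.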
Data set [13] deals with beet. Description: Test Example 5: effect on crop by foliage application, plastic box (symbol f). The following applies: 320 g/ha, 3 weeks after application. The procedure, abridged:
as §4

For data set [14], the system named is rapeseed. Description: Test Example 5: effect on crop by foliage application, plastic box (symbol g). The following applies: 320 g/ha, 3 weeks after application. In outline: as §4

This note sets out measurements from patent publication US11000033B2, “Ketone or oxime compound, and herbicide” (NISSAN CHEMICAL CORPORATION, priority 2014, dated 2021).

For `CON=C(CC1CC(O)=C(c2c(C)cc(-n3cc(Cl)cn3)cc2C)C1=O)C1CC1` (stereo not shown) [9-007], the “B (Scirpus juncoides) herbicidal effect grade” value in data set [1] is 4 (Herbicidal ratio of 70% or higher and lower than 90%). Besides, in [2], the “C (Monochoria vaginalis) herbicidal effect grade” value is listed as 0 (Herbicidal ratio of 5% or lower (almost no effect)). Moreover, the “E herbicidal effect grade” value in [3] is 5 (Herbicidal ratio of 90% or more (almost completely withered)). In addition, the “Herbicidal effect grade, N: Amaranthus retroflexus” value (“Herbicidal effect grade, N” for short) in data set [4] is reported as 0 (Herbicidal ratio of 5% or lower (almost no effect)). In [5], the “Effect on crop grade, c: corn” value was 0 (Herbicidal ratio of 5% or lower (almost no effect)). Also, the “Effect on crop grade, f: beet” value in data set [6] is reported as 0 (Herbicidal ratio of 5% or lower (almost no effect)). The “Effect on crop grade, g: rapeseed” value in data set [7] is on record as 0 (Herbicidal ratio of 5% or lower (almost no effect)). The “G: Setaria viridis, herbicidal effect grade” value (“G: Setaria viridis” for short) in data set [8] is 5 (Herbicidal ratio of 90% or more (almost completely withered)). The “K: Lolium multiflorum Lam., herbicidal effect grade” value in data set [9] is 5 (Herbicidal ratio of 90% or more (almost completely withered)). In addition, the “L: Apera spica-venti, herbicidal effect grade” value (“L: Apera spica-venti” for short) in [10] is given as 5 (Herbicidal ratio of 90% or more (almost completely withered)). Besides, the “Q: Galium spurium, herbicidal effect grade” value (shortened to “Q: Galium spurium”) in data set [11] was 1 (Herbicidal ratio of 5% or higher and lower than 20%). Besides, the “e: wheat, effect on crop grade” value in data set [12] is 4 (Herbicidal ratio of 70% or higher and lower than 90%). Also, the “f: beet, effect on crop grade” value in data set [13] is 0 (Herbicidal ratio of 5% or lower (almost no effect)). Besides, the “g: rapeseed, effect on crop grade” value in data set [14] was 4 (Herbicidal ratio of 70% or higher and lower than 90%).

As to `CC#Cc1cc(C)c(C2=C(O)CC(CC(=NOC)C3CC3)C2=O)c(C)c1` (stereo not shown) [9-008], in data set [1], the “B (Scirpus juncoides) herbicidal effect grade” value is recorded as 5 (Herbicidal ratio of 90% or more (almost completely withered)). Further, in data set [2], the “C (Monochoria vaginalis) herbicidal effect grade” value was 4 (Herbicidal ratio of 70% or higher and lower than 90%). The “E herbicidal effect grade” value in [3] was 5 (Herbicidal ratio of 90% or more (almost completely withered)). Moreover, the “Herbicidal effect grade, N” value in data set [4] is 4 (Herbicidal ratio of 70% or higher and lower than 90%). Besides, in data set [5], the “Effect on crop grade, c: corn” value is 4 (Herbicidal ratio of 70% or higher and lower than 90%). In addition, the “Effect on crop grade, f: beet” value in data set [6] was 0 (Herbicidal ratio of 5% or lower (almost no effect)). For the same compound, the “Effect on crop grade, g: rapeseed” value in data set [7] is 4 (Herbicidal ratio of 70% or higher and lower than 90%). Besides, the “G: Setaria viridis” value in data set [8] was 5 (Herbicidal ratio of 90% or more (almost completely withered)). In data set [9], the “K: Lolium multiflorum Lam., herbicidal effect grade” value is on record as 5 (Herbicidal ratio of 90% or more (almost completely withered)). For the same compound, in data set [10], the “L: Apera spica-venti” value is recorded as 5 (Herbicidal ratio of 90% or more (almost completely withered)). The “Q: Galium spurium” value in [11] was 2 (Herbicidal ratio of 20% or higher and lower than 40%). Besides, in [12], the “e: wheat, effect on crop grade” value is on record as 5 (Herbicidal ratio of 90% or more (almost completely withered)). In addition, the “f: beet, effect on crop grade” value in data set [13] is 0 (Herbicidal ratio of 5% or lower (almost no effect)). Further, in [14], the “g: rapeseed, effect on crop grade” value is 4 (Herbicidal ratio of 70% or higher and lower than 90%).

In the case of `CC(CC1CC(O)=C(c2c(C)cc(-n3cc(Cl)cn3)cc2C)C1=O)=NOCC(F)(F)F` (stereo not shown) [9-010], the “B (Scirpus juncoides) herbicidal effect grade” value in [1] was 5 (Herbicidal ratio of 90% or more (almost completely withered)). In addition, the “C (Monochoria vaginalis) herbicidal effect grade” value in [2] is 4 (Herbicidal ratio of 70% or higher and lower than 90%). Moreover, the “E herbicidal effect grade” value in data set [3] is 5 (Herbicidal ratio of 90% or more (almost completely withered)). The “Herbicidal effect grade, N” value in data set [4] is 0 (Herbicidal ratio of 5% or lower (almost no effect)). The “Effect on crop grade, c: corn” value in data set [5] was 1 (Herbicidal ratio of 5% or higher and lower than 20%). In data set [6], the “Effect on crop grade, f: beet” value was 0 (Herbicidal ratio of 5% or lower (almost no effect)). Also, the “Effect on crop grade, g: rapeseed” value in [7] is listed as 0 (Herbicidal ratio of 5% or lower (almost no effect)). Further, the “G: Setaria viridis” value in [8] is recorded as 5 (Herbicidal ratio of 90% or more (almost completely withered)). In addition, the “K: Lolium multiflorum Lam., herbicidal effect grade” value in data set [9] is listed as 5 (Herbicidal ratio of 90% or more (almost completely withered)). The “L: Apera spica-venti” value in [10] was 5 (Herbicidal ratio of 90% or more (almost completely withered)). In addition, the “Q: Galium spurium” value in [11] was 3 (Herbicidal ratio of 40% or higher and lower than 70%). Moreover, the “e: wheat, effect on crop grade” value in data set [12] is 0 (Herbicidal ratio of 5% or lower (almost no effect)). For the same compound, the “f: beet, effect on crop grade” value in data set [13] is recorded as 0 (Herbicidal ratio of 5% or lower (almost no effect)). Further, the “g: rapeseed, effect on crop grade” value in data set [14] was 3 (Herbicidal ratio of 40% or higher and lower than 70%).

As to `CC#Cc1cc(C)c(C2=C(O)CC(CC(C)=NOCC(F)(F)F)C2=O)c(C)c1` (stereo not shown) [9-011], the “B (Scirpus juncoides) herbicidal effect grade” value in data set [1] is 5 (Herbicidal ratio of 90% or more (almost completely withered)). Besides, in data set [2], the “C (Monochoria vaginalis) herbicidal effect grade” value was 4 (Herbicidal ratio of 70% or higher and lower than 90%). Further, in data set [3], the “E herbicidal effect grade” value is given as 5 (Herbicidal ratio of 90% or more (almost completely withered)). Besides, the “Herbicidal effect grade, N” value in data set [4] was 0 (Herbicidal ratio of 5% or lower (almost no effect)). Besides, in data set [5], the “Effect on crop grade, c: corn” value is 5 (Herbicidal ratio of 90% or more (almost completely withered)). The “Effect on crop grade, f: beet” value in data set [6] is on record as 0 (Herbicidal ratio of 5% or lower (almost no effect)). For the same compound, the “Effect on crop grade, g: rapeseed” value in [7] is 4 (Herbicidal ratio of 70% or higher and lower than 90%). Further, the “G: Setaria viridis” value in [8] is reported as 5 (Herbicidal ratio of 90% or more (almost completely withered)). In addition, the “K: Lolium multiflorum Lam., herbicidal effect grade” value in data set [9] is listed as 5 (Herbicidal ratio of 90% or more (almost completely withered)). In addition, the “L: Apera spica-venti” value in data set [10] is on record as 5 (Herbicidal ratio of 90% or more (almost completely withered)). The “Q: Galium spurium” value in [11] is 1 (Herbicidal ratio of 5% or higher and lower than 20%). In [12], the “e: wheat, effect on crop grade” value is given as 5 (Herbicidal ratio of 90% or more (almost completely withered)). Further, the “f: beet, effect on crop grade” value in data set [13] is on record as 0 (Herbicidal ratio of 5% or lower (almost no effect)). Besides, the “g: rapeseed, effect on crop grade” value in data set [14] was 4 (Herbicidal ratio of 70% or higher and lower than 90%).

With `CC(CC1CC(OC(=O)COc2ccccc2)=C(c2c(C)cc(-n3cc(Cl)cn3)cc2C)C1=O)=NOCC(F)(F)F` (stereo not shown) [9-012], the “B (Scirpus juncoides) herbicidal effect grade” value in [1] was 4 (Herbicidal ratio of 70% or higher and lower than 90%). Also, in data set [2], the “C (Monochoria vaginalis) herbicidal effect grade” value was 2 (Herbicidal ratio of 20% or higher and lower than 40%). Also, in [3], the “E herbicidal effect grade” value was 5 (Herbicidal ratio of 90% or more (almost completely withered)). In data set [4], the “Herbicidal effect grade, N” value is 0 (Herbicidal ratio of 5% or lower (almost no effect)). In addition, in data set [5], the “Effect on crop grade, c: corn” value is 2 (Herbicidal ratio of 20% or higher and lower than 40%). For the same compound, in data set [6], the “Effect on crop grade, f: beet” value is listed as 0 (Herbicidal ratio of 5% or lower (almost no effect)). In [7], the “Effect on crop grade, g: rapeseed” value is listed as 0 (Herbicidal ratio of 5% or lower (almost no effect)). Also, in data set [8], the “G: Setaria viridis” value was 5 (Herbicidal ratio of 90% or more (almost completely withered)). Besides, the “K: Lolium multiflorum Lam., herbicidal effect grade” value in data set [9] is recorded as 5 (Herbicidal ratio of 90% or more (almost completely withered)). Also, the “L: Apera spica-venti” value in [10] is listed as 5 (Herbicidal ratio of 90% or more (almost completely withered)). Besides, the “Q: Galium spurium” value in data set [11] is 4 (Herbicidal ratio of 70% or higher and lower than 90%). The “e: wheat, effect on crop grade” value in data set [12] was 2 (Herbicidal ratio of 20% or higher and lower than 40%). For the same compound, in [13], the “f: beet, effect on crop grade” value was 0 (Herbicidal ratio of 5% or lower (almost no effect)). In data set [14], the “g: rapeseed, effect on crop grade” value is 3 (Herbicidal ratio of 40% or higher and lower than 70%).
